Test results from US9462808B2, “Pesticidal compositions” (Syngenta Participants AG, priority 2010, dated 2016).
Read-outs that look alike come from different tables or passages of the source.

Experiments:
Type in all cases: in vivo
[1] = system: Wheat, Triticium durum (Poaceae) var. Arina; assay: Reduction of phytotoxicity by safeners applied as seed treatment with compound of formula I on wheat (Example B4)
Procedure: Test compounds: compound P1.2 according to Table P1, as SC 050; Safener 1=cloquintocet-mexyl, as WP 25, Safener 2=mefenpyr-diethyl as WP 25, Safener 3═N-(2-methoxybenzoyl)-4-[(methylaminocarbonyl)amino]benzenesulfonamide, as SC 100. • Plants: Wheat, Triticium durum (Poaceae) var. Arina • Seed treatment: The seeds were treated by shaking the seeds with a slurry for 30 seconds in a glass flask. Treatments were 10% overdosed to compensate for substance adhering to the flask. In a first step, compound P1.2 was treated on the seeds. Afterwards the safeners were treated on the dried seeds. […] The loading rates of the safeners were 0.5, 0.1 and 0.025 mg a.i./seed. Soil: “Drench soil”, loamy sand, prefertilised with 1 g/I soil of Landor 13.1.3.21. • Procedures: 9-cm pots were filled with 330 ml of Drench soil loamy sand and the seeds were placed into the soil in about 5 mm beneath the soil surface. • Conditions: During the growth period the plants were kept in a randomised fashion in a greenhouse chamber at 25° C. during daytime, 23° C. during night, 50-60% rH, a 14-hour photoperiod and artificial lighting when natural light fell below 20 kLux. During the exposure the assay was kept at 22° C. • Assessments: 14 days after emergence, the phytotoxicity was recorded.

[2] = system: Rhopalosiphum padi (cereal aphid); assay: Activity against Rhopalosiphum padi (cereal aphid) on wheat, selected safeners at different mixture ratios, 7 DAA (Example B3); settings: AI rate 12.5 ppm
Procedure: One replicate consisted of 4 wheat plants per pot. […] Test solutions contained the formulated test compounds, the adjuvant Mero (0.1% v/v), and selected safeners at different mixture ratios. 7d after application aphid mortality and was evaluated.

[3] = system: Nilaparvata lugens (brown plant hopper, BPH); assay: Activity against Nilaparvata lugens (brown plant hopper, BPH) on rice, spray with safeners, 7 d after application (Example B2); settings: 168 h, read-out: % mortality, corr.; for mortality at 25 ppm: 25 ppm AI; for mortality at 50 ppm: 50 ppm AI; for mortality at 100 ppm: 100 ppm AI; for mortality at 200 ppm: 200 ppm AI
Procedure: Eight replicates (pots with rice plants) were sprayed with respective test solutions. Test solutions contained the formulated test compound and the safener cloquintocet and N-(2-methoxybenzoyl)-4-[(methylaminocarbonyl)amino]-benzenesulfonamide at different ratios. 4 pots were infested with plant hopper nymphs right after application. 7d after application BPH mortality and plant safety were evaluated. […] Assessment on plant safety was done by measuring the average plant height per replicate.

[4] = system: Rhopalosiphum padi (cereal aphid); assay: Activity against Rhopalosiphum padi (cereal aphid) on wheat, spray with safener cloquintocet, 6 days after application (Example B1); settings: 144 h, test compound 25 ppm, adjuvant Mero 0.1% v/v, 6 days after application, Abbott's formula, read-out: Efficacy (% mortality) against cereal aphids (Rhopalosiphum padi)
Procedure: One replicate consisted of 4 wheat plants per pot. […] 9 days after seeding all wheat plants (10replicates) were sprayed with respective test solutions. […] 6 days after application aphid mortality and phytotoxicity were evaluated. […] Additionally the average plant height per replicate was measured.

Compound: CCOC(=O)OC1=C(c2c(C)cc(C)cc2C)C(=O)N(C)C12CCN(OC)CC2 [Compound P1.2, Carbonic acid ethyl ester 8-methoxy-1-methyl-2-oxo-3-(2,4,6-trimethyl-phenyl)-1,8-diaza-spiro[4.5]dec-3-en-4-yl ester]
- Phytotoxicity after seed treatment ([1]; P1.2 0.1 mg a.i./seed with safeners (cloquintocet-mexyl, mefenpyr-diethyl, N-(2-methoxybenzoyl)-4-[(methylaminocarbonyl)amino]benzenesulfonamide), wheat, 14 days after emergence): safeners protect the plants from the adverse effects
- Phytotoxicity (%) of compound P1.2 on wheat, control without safener ([1]; seed treatment, 1 mg compound P1.2, without safener): Control: application of 1 mg compound P1.2. without safener results in 64.3% phyotoxicity
- Efficacy (% mortality) against cereal aphids (Rhopalosiphum padi) 7DAA ([2]; + Cloquintocet-mexyl, ratio AI:safener 1:2): 94%
- Efficacy (% mortality) against cereal aphids (Rhopalosiphum padi) 7DAA ([2]; + Cloquintocet-mexyl, ratio AI:safener 1:4): 91%
- Efficacy (% mortality) against cereal aphids (Rhopalosiphum padi) 7DAA ([2]; + Cloquintocet-mexyl, ratio AI:safener 1:8): 91%
- Efficacy (% mortality) against cereal aphids (Rhopalosiphum padi) 7DAA ([2]; + Mefenpyr-diethyl, ratio AI:safener 1:2): 97%
- Efficacy (% mortality) against cereal aphids (Rhopalosiphum padi) 7DAA ([2]; + Mefenpyr-diethyl, ratio AI:safener 1:4): 92%
- Efficacy (% mortality) against cereal aphids (Rhopalosiphum padi) 7DAA ([2]; + Mefenpyr-diethyl, ratio AI:safener 1:8): 92%
- Efficacy (% mortality) against cereal aphids (Rhopalosiphum padi) 7DAA ([2]; + Safener 2 (N-(2-methoxybenzoyl)-4-[(methylaminocarbonyl)amino]benzenesulfonamide), ratio AI:safener 1:2): 97%
- Efficacy (% mortality) against cereal aphids (Rhopalosiphum padi) 7DAA ([2]; + Safener 2 (N-(2-methoxybenzoyl)-4-[(methylaminocarbonyl)amino]benzenesulfonamide), ratio AI:safener 1:4): 95%
- Efficacy (% mortality) against cereal aphids (Rhopalosiphum padi) 7DAA ([2]; + Safener 2 (N-(2-methoxybenzoyl)-4-[(methylaminocarbonyl)amino]benzenesulfonamide), ratio AI:safener 1:8): 97%
- Efficacy (% mortality) against cereal aphids (Rhopalosiphum padi) 7DAA ([2]; no safener, spray on wheat, Abbott's formula): 98%
- mortality at 12.5 ppm ([3]; 12.5 ppm AI, Safener 2, ratio AI:safener 0.9:1, 7 d after application): 0%
- mortality at 25 ppm ([3]; Cloquintocet, ratio AI:safener 1.9:1, 7 d after application): 30%
- mortality at 25 ppm ([3]; Safener 2, ratio AI:safener 1.9:1, 7 d after application): 3%
- mortality at 50 ppm ([3]; Cloquintocet, ratio AI:safener 1.25:1, 7 d after application): 57%
- mortality at 50 ppm ([3]; Safener 2, ratio AI:safener 1.25:1, 7 d after application): 42%
- mortality at 100 ppm ([3]; Cloquintocet, ratio AI:safener 7.5:1, 7 d after application): 78%
- mortality at 100 ppm ([3]; Safener 2, ratio AI:safener 7.5:1, 7 d after application): 68%
- mortality at 200 ppm ([3]; Cloquintocet, ratio AI:safener 15:1, 7 d after application): 93%
- mortality at 200 ppm ([3]; Safener 2, ratio AI:safener 15:1, 7 d after application): 85%
- mortality at 25 ppm ([4]; ratio AI:safener cell blank (no safener), wheat): 97.4%
- mortality at 25 ppm ([4]; safener cloquintocet, ratio AI:safener 1:1, wheat): 93.4%
- mortality at 25 ppm ([4]; safener cloquintocet, ratio AI:safener 1:2, wheat): 94.4%
